Measurements from PMC11110727, “Exploiting thiol-functionalized benzosiloxaboroles for achieving diverse substitution patterns – synthesis, characterization and biological evaluation of promising antibacterial agents” (RSC Medicinal Chemistry, 2024).
Converted amounts (≈) assume the structure as drawn. Read-outs that look alike come from different tables or passages of the source.

Key:
P. mirabilis ATCC 12453 = test: Antibacterial activity: MIC/MBC, MIC with PAβN, disc-diffusion; assay type: cell-based, Proteus mirabilis; details: Proteus mirabilis, ATCC12453
Summary of the method: (§1)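 MICs were measured by CLSI broth microdilution in Mueller–Hinton II broth, with or without the efflux-pump inhibitor PAβN (20 μg mL^−1) and with 1 mM MgSO4 present. A reduction of at least 4-fold with PAβN was counted as significant. Disc diffusion followed EUCAST/CLSI, MBC followed CLSI, and compounds were dissolved in DMSO.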

C. krusei ATCC 6258 = test: Antifungal activity: MIC/MFC, disc-diffusion; assay type: cell-based; details: for MIC: Pichia kudriavzevii, ATCC6258; for diameter of inhibition zone: C. krusei ATCC 6258, (-) = zone not observed, paper discs 9 mm
Summary of the method: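 Compounds in DMSO were tested by disc diffusion and MIC determination following EUCAST/CLSI guidance, with fungicidal concentration (MFC) per CLSI. Strain first grown twice-checked on Sabouraud dextrose agar, 30 °C, 24–48 h.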

[1] = tested on: B. bronchiseptica ATCC 4617; test: Antibacterial activity: MIC/MBC, disc-diffusion; assay type: cell-based, Bordetella bronchiseptica; details: Bordetella bronchiseptica, ATCC4617
Summary of the method: as §1

A. baumannii ATCC 19606 = test: Antibacterial activity: MIC/MBC, MIC with PAβN, disc-diffusion; assay type: cell-based, Acinetobacter baumannii; details: Acinetobacter baumannii, ATCC19606
Summary of the method: as §1

E. faecium ATCC 6057 = test: Antibacterial activity: MIC/MBC determination and disc-diffusion; assay type: cell-based; details: Enterococcus faecium, ATCC6057
Summary of the method: (§2)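 Antimicrobial susceptibility was assessed by agar disc diffusion and MIC assays per EUCAST and CLSI standards. Minimum bactericidal and fungicidal concentrations were established according to CLSI.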

[2] = tested on: S. epidermidis ATCC 12228; test: as above; assay type: cell-based; details: Staphylococcus epidermidis, ATCC12228
Summary of the method: as §2

E. faecalis ATCC 29212 = test: as above; assay type: cell-based; details: Enterococcus faecalis, ATCC29212
Summary of the method: as §2

[3] = tested on: S. aureus ATCC 43300 MRSA; test: as above; assay type: cell-based; details: Staphylococcus aureus
Summary of the method: as §2

E. coli ATCC 25922 = test: Antibacterial activity: MIC/MBC, MIC with PAβN, disc-diffusion; assay type: cell-based, Escherichia coli; details: for -fold reduction of MIC in the presence of PAβN: PAβN 20 μg mL^−1, MHB + 1 mM MgSO4; for MIC: Escherichia coli, ATCC25922
Summary of the method: as §1

S. marcescens ATCC 13880 = test: as above; assay type: cell-based, Serratia marcescens; details: Serratia marcescens, ATCC13880
Summary of the method: as §1

[4] = P. mirabilis ATCC 12453, read-out: MIC
[5] = B. bronchiseptica ATCC 4617, read-out: MIC
[6] = A. baumannii ATCC 19606, read-out: MIC
[7] = E. faecium ATCC 6057, read-out: MIC
[8] = S. epidermidis ATCC 12228, read-out: MIC
[9] = E. faecalis ATCC 29212, read-out: MIC
[10] = S. aureus ATCC 43300 MRSA, read-out: MBC (first MBC where Eagle effect)
[11] = S. aureus ATCC 43300 MRSA, read-out: MIC
[12] = E. coli ATCC 25922, read-out: MIC
[13] = S. marcescens ATCC 13880, read-out: MIC

Row | Structure (SMILES) | MIC (P. mirabilis ATCC 12453; [4]) [mg/L] | MIC (C. krusei ATCC 6258; read-out: MIC) [mg/L] | MIC [1, 5] [mg/L] | MIC (A. baumannii ATCC 19606; [6]) [mg/L] | MIC (E. faecium ATCC 6057; [7]) [mg/L] | MBC ([2]; S. epidermidis ATCC 12228) [mg/L] | MIC [2, 8] [mg/L] | MIC (E. faecalis ATCC 29212; [9]) [mg/L] | MBC [3, 10] [mg/L] | MIC [3, 11] [mg/L] | -fold reduction of MIC in the presence of PAβN (E. coli ATCC 25922; E. coli ATCC 25922) | MIC (E. coli ATCC 25922; [12]) [mg/L] | MIC (S. marcescens ATCC 13880; [13]) [mg/L] | MBC (E. faecalis ATCC 29212; E. faecalis ATCC 29212) [mg/L] | other results
1 | C[Si]1(C)OB(O)c2cc(F)c(SCCS(=O)(=O)c3ccccc3)c(F)c21 [Compound 20, 5,7-Difluoro-1,1-dimethyl-6-((2-(phenylsulfonyl)ethyl)thio)benzo[c][1,2,5]oxasilaborol-3(1H)-ol] | > 400 | > 400 | > 400 | > 400 | 100 (≈ 241 µM) | 400 (≈ 965 µM) | 25 (≈ 60.3 µM) | 100 (≈ 241 µM) | 200 (≈ 483 µM) | 6.25 (≈ 15.1 µM) | 32 -fold | > 400 | > 400 |  | 
2 | C[Si]1(C)OB(O)c2ccc(SCCS(=O)(=O)c3ccccc3)c(F)c21 [Compound 21, 7-Fluoro-1,1-dimethyl-6-((2-(phenylsulfonyl)ethyl)thio)benzo[c][1,2,5]oxasilaborol-3(1H)-ol] | > 400 | > 400 | > 400 | > 400 | 200 (≈ 505 µM) |  | 25 (≈ 63.1 µM) | 200 (≈ 505 µM) | 400 (≈ 1010 µM) | 12.5 (≈ 31.5 µM) | 16 -fold | > 400 | > 400 |  | diameter of inhibition zone (E. coli ATCC 25922; E. coli ATCC 25922, (-) = zone not observed, paper discs 9 mm): 11 mm
3 | CC(=O)CSc1ccc2c(c1F)[Si](C)(C)OB2O [Compound 22, 1-((7-Fluoro-3-hydroxy-1,1-dimethyl-1,3-dihydrobenzo[c][1,2,5]oxasilaborol-6-yl)thio)propan-2-one] | > 400 | 200 (≈ 704 µM) | > 400 | > 400 | 25 (≈ 88 µM) | 12.5 (≈ 44 µM) | 6.25 (≈ 22 µM) | 25 (≈ 88 µM) | 200 (≈ 704 µM) | 6.25 (≈ 22 µM) |  | > 400 | > 400 | 400 (≈ 1410 µM) | diameter of inhibition zone (C. krusei ATCC 6258): 12 mm
4 | C[Si]1(C)OB(O)c2ccc(SCC(=O)c3ccccc3)c(F)c21 [Compound 23, 2-((7-Fluoro-3-hydroxy-1,1-dimethyl-1,3-dihydrobenzo[c][1,2,5]oxasilaborol-6-yl)thio)-1-phenylethan-1-one] | > 400 | 200 (≈ 578 µM) | > 400 | > 400 | 50 (≈ 144 µM) | 50 (≈ 144 µM) | 12.5 (≈ 36.1 µM) | 50 (≈ 144 µM) | 25 (≈ 72.2 µM) | 3.12 (≈ 9.01 µM) |  | > 400 | > 400 | 200 (≈ 578 µM) | diameter of inhibition zone (C. krusei ATCC 6258): 12 mm; MBC ([3]; S. aureus ATCC 43300 MRSA, value after the slash, read-out: second MBC (Eagle effect)): 100 mg/L (≈ 289 µM)
5 | CCOP(=O)(OCC)Sc1c(F)cc2c(c1F)[Si](C)(C)OB2O [Compound 24, S-(5,7-Difluoro-3-hydroxy-1,1-dimethyl-1,3-dihydrobenzo[c][1,2,5]oxasilaborol-6-yl) O,O-diethyl phosphorothioate] |  |  |  |  |  |  |  |  |  |  |  |  |  |  | MIC (P. mirabilis ATCC 12453): > 400 mg/L; MIC (C. krusei ATCC 6258): > 400 mg/L; MIC [1]: > 400 mg/L; MIC (A. baumannii ATCC 19606): > 400 mg/L; MIC (E. faecium ATCC 6057): 400 mg/L (≈ 1050 µM); MIC [2]: 100 mg/L (≈ 262 µM); MIC (E. faecalis ATCC 29212): > 400 mg/L; MIC [3]: 12.5 mg/L (≈ 32.7 µM); MBC ([3]; read-out: MBC (first MBC where Eagle effect)): > 400 mg/L; MIC (E. coli ATCC 25922): > 400 mg/L; MIC (S. marcescens ATCC 13880): > 400 mg/L
6 | C[Si]1(C)OB(O)c2ccc(SC(=O)c3ccc(C(F)(F)F)cc3)c(F)c21 [Compound 25, S-(7-Fluoro-3-hydroxy-1,1-dimethyl-1,3-dihydrobenzo[c][1,2,5]oxasilaborol-6-yl) 4-(trifluoromethyl)benzothioate] | > 50 | > 50 | > 50 | > 50 | 12.5 (≈ 31.2 µM) | 25 (≈ 62.5 µM) | 3.12 (≈ 7.8 µM) | 12.5 (≈ 31.2 µM) | 25 (≈ 62.5 µM) | 12.5 (≈ 31.2 µM) |  | > 50 | > 50 | 25 (≈ 62.5 µM) | MBC (E. faecium ATCC 6057; E. faecium ATCC 6057): > 50 mg/L
7 | C[Si]1(C)OB(O)c2cc(F)c(S(=O)(=O)Cl)c(F)c21 [Compound 26, 5,7-Difluoro-3-hydroxy-1,1-dimethyl-1,3-dihydrobenzo[c][1,2,5]oxasilaborole-6-sulfonyl chloride] | > 400 | > 400 | > 400 | > 400 | 100 |  | 200 | 200 |  | 200 |  | > 400 | > 400 |  | 
8 | C[Si]1(C)OB(O)c2cc(F)c(S(N)(=O)=O)c(F)c21 [Compound 27, 5,7-Difluoro-3-hydroxy-1,1-dimethyl-1,3-dihydrobenzo[c][1,2,5]oxasilaborole-6-sulfonamide] | > 400 | > 400 | > 400 | > 400 | 400 (≈ 1360 µM) |  | > 400 | 400 (≈ 1360 µM) |  | > 400 | 2 -fold | > 400 | > 400 |  | 
9 | C[Si]1(C)OB(O)c2cc(F)c(S(=O)(=O)Nc3ccc(F)cc3)c(F)c21 [Compound 28, 5,7-Difluoro-N-(4-fluorophenyl)-3-hydroxy-1,1-dimethyl-1,3-dihydrobenzo[c][1,2,5]oxasilaborole-6-sulfonamide] | > 400 | > 400 | > 400 | > 400 | 400 (≈ 1030 µM) | 100 (≈ 258 µM) | 50 (≈ 129 µM) | 400 (≈ 1030 µM) |  | 100 (≈ 258 µM) | 4 -fold | > 400 | > 400 |  | 
